The subject of one experiment is lambsquarters. The experiment can be described thus: Test Example 5: herbicidal effect by foliage application, plastic box (Table 20, symbol O). The experiment is classed as in vivo, lambsquarters (Chenopodium album). The settings on record: foliage application after 14-day growth, evaluated three weeks after application. Summed up:
(§1)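 Post-emergence foliar test in sterilized diluvial soil. Compound applied as water-diluted emulsion at a predetermined rate to 14-day-old plants; evaluation at three weeks.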

For the next experiment, the system named is persian speedwell. Put plainly: Test Example 5: herbicidal effect by foliage application, plastic box (Table 20, symbol R). The experiment is classed as in vivo, Persian speedwell (Veronica persica). As to conditions: 320 g/ha, foliage application after 14-day growth, evaluated three weeks after application. Summed up:
as §1

The subject of the next experiment is rice flat sedge. Put plainly: Test Example 3: herbicidal effect by foliage application, Wagner pot (Table 18, symbol E). As to conditions: 320 g/ha. The experiment is classed as in vivo, rice flat sedge (Cyperus iria). Summed up:
(§2)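 Plants were sown in alluvial soil held under 0.1–0.5 cm standing water and grown 14 days in a greenhouse at 25–30 °C. An emulsifiable formulation, water-diluted to the set dose, was then sprayed onto the foliage, and effects were scored three weeks later using previously defined criteria.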

Another experiment deals with windgrass. The experiment can be described thus: Test Example 5: herbicidal effect by foliage application, plastic box (Table 20, symbol L). As to conditions: foliage application after 14-day growth, evaluated three weeks after application. The experiment is classed as in vivo, windgrass (Apera spica-venti). The method in brief: as §1
Another experiment concerns velvetleaf. The experiment can be described thus: Test Example 5: herbicidal effect by foliage application, plastic box (Table 20, symbol M). The class given is in vivo, velvetleaf (Abutilon theophrasti). As to conditions: foliage application after 14-day growth, evaluated three weeks after application. The method in brief:
as §1

In experiment [1] the test system is barnyard grass. The experiment can be described thus: Test Example 5: herbicidal effect by foliage application, plastic box (Table 20, symbol H). The class given is in vivo, barnyard grass (Echinochloa crus-galli). The settings on record: foliage application after 14-day growth, evaluated three weeks after application. The method in brief: as §1
Another experiment has as its system green foxtail. The experiment can be described thus: Test Example 5: herbicidal effect by foliage application, plastic box (Table 20, symbol G). The settings on record: foliage application after 14-day growth, evaluated three weeks after application. The class given is in vivo, green foxtail (Setaria viridis). Summed up: as §1
Another experiment deals with southern crabgrass. The experiment can be described thus: Test Example 5: herbicidal effect by foliage application, plastic box (Table 20, symbol F). The class given is in vivo, southern crabgrass (Digitaria ciliaris). As to conditions: foliage application after 14-day growth, evaluated three weeks after application. The method in brief:
as §1

Another experiment concerns chickweed. The experiment can be described thus: Test Example 5: herbicidal effect by foliage application, plastic box (Table 20, symbol P). The class given is in vivo, common chickweed (Stellaria media). As to conditions: foliage application after 14-day growth, evaluated three weeks after application. Summed up:
as §1

Experiment [2] has as its system barnyard grass. Put plainly: Test Example 3: herbicidal effect by foliage application, Wagner pot (Table 18, symbol H). The experiment is classed as in vivo, barnyard grass (Echinochloa crus-galli). As to conditions: 320 g/ha. The method in brief:
as §2

A further experiment relates to Chinese sprangletop. Put plainly: Test Example 3: herbicidal effect by foliage application, Wagner pot (Table 18, symbol D). As to conditions: 320 g/ha. The experiment is classed as in vivo, chinese sprangletop (Leptochloa chinensis). Summed up: as §2
For a further experiment, the system named is Italian ryegrass. Put plainly: Test Example 5: herbicidal effect by foliage application, plastic box (Table 20, symbol K). The experiment is classed as in vivo, Italian ryegrass (Lolium multiflorum). As to conditions: foliage application after 14-day growth, evaluated three weeks after application. Summed up: as §1
The next experiment deals with redroot pigweed. Put plainly: Test Example 5: herbicidal effect by foliage application, plastic box (Table 20, symbol N). As to conditions: foliage application after 14-day growth, evaluated three weeks after application. The class given is in vivo, redroot pigweed (Amaranthus retroflexus). The source says:
[Test Example 5] Herbicidal Effect Test by Foliage Application
Sterilized diluvial soil was placed in a plastic box having a length of 21 cm, a width of 13 cm, and a depth of 7 cm. The seeds of each of southern crabgrass, green foxtail, barnyard grass, wild oat, blackgrass, Italian ryegrass, windgrass, velvetleaf, redroot pigweed, lambsquarters, chickweed, false cleavers, persian speedwell, corn, soybean, rice, wheat, beet, and rapeseed were sowed in a spot-like manner and covered with the soil having a thickness of about 1.5 cm. Thereafter, the plants were grown in a greenhouse at 25° C. to 30° C. After 14-day growth of the plants, the emulsion agent of the compound of the present invention prepared according to Formulation Example 2 was diluted with water so as to achieve a predetermined herbicide amount, and the diluted emulsion agent was uniformly applied to a foliage part with a small-sized spray. Three weeks after the herbicide application, the effect of the herbicide on each plant was evaluated according to the criteria of Test Example 1.

A further experiment deals with wild oat. The experiment can be described thus: Test Example 5: herbicidal effect by foliage application, plastic box (Table 20, symbol I). The class given is in vivo, wild oat (Avena fatua). The settings on record: foliage application after 14-day growth, evaluated three weeks after application. The method in brief: as §1
The test system of a further experiment is blackgrass. The experiment can be described thus: Test Example 5: herbicidal effect by foliage application, plastic box (Table 20, symbol J). The class given is in vivo, blackgrass (Alopecurus myosuroides). As to conditions: amount of applied herbicide 320 g/ha; foliage application after 14-day growth; evaluated three weeks after application. Summed up:
as §1

Where [3] appears, read: amount of applied herbicide 320 g/ha.

Each structure is given as a SMILES string.

Turning to `CCCC(=O)Oc1c(C)nn(C)c(=O)c1-c1c(-c2ccc(OC)c(OC)c2)sc2c(F)cccc12` [4-014], the “herbicidal effect on O: lambsquarters (evaluation grade 0-5)” value in the experiment with lambsquarters (320 g/ha) is given as 0 (Herbicidal rate of 5% or less (almost no effect)). Besides, the “herbicidal effect on R: persian speedwell (evaluation grade 0-5)” value in the experiment on persian speedwell was 3 (Herbicidal rate of 40% or more and less than 70%). The “herbicidal effect on rice flat sedge (E)” value in the experiment on rice flat sedge is 0 (Herbicidal rate of 5% or less (almost no effect)). Further, in the experiment with windgrass (320 g/ha), the “herbicidal effect on L: windgrass (evaluation grade 0-5)” value is listed as 0 (Herbicidal rate of 5% or less (almost no effect)). Also, the “herbicidal effect on M: velvetleaf (evaluation grade 0-5)” value in the experiment with velvetleaf (320 g/ha) was 3 (Herbicidal rate of 40% or more and less than 70%). In addition, the “herbicidal effect on H: barnyard grass (evaluation grade 0-5)” value in the experiment on barnyard grass [1] (320 g/ha) is 2 (Herbicidal rate of 20% or more and less than 40%). The “herbicidal effect on G: green foxtail (evaluation grade 0-5)” value in the experiment with green foxtail (320 g/ha) is 4 (Herbicidal rate of 70% or more and less than 90%). Moreover, the “herbicidal effect on F: southern crabgrass (evaluation grade 0-5)” value with southern crabgrass (320 g/ha) was 0 (Herbicidal rate of 5% or less (almost no effect)). In the experiment on chickweed (320 g/ha), the “herbicidal effect on P: chickweed (evaluation grade 0-5)” value is 5 (Herbicidal rate of 90% or more (almost completely withered)). Besides, the “herbicidal effect on barnyard grass (H)” value in the experiment with barnyard grass [2] is 3 (Herbicidal rate of 40% or more and less than 70%). Moreover, in the experiment on Chinese sprangletop, the “herbicidal effect on Chinese sprangletop (D)” value was 0 (Herbicidal rate of 5% or less (almost no effect)). For the same molecule, in the experiment on Italian ryegrass (320 g/ha), the “herbicidal effect on K: Italian ryegrass (evaluation grade 0-5)” value was 1 (Herbicidal rate of 5% or more and less than 20%). The “herbicidal effect on N: redroot pigweed (evaluation grade 0-5)” value in the experiment with redroot pigweed (320 g/ha) is 1 (Herbicidal rate of 5% or more and less than 20%). For the same molecule, the “herbicidal effect on I: wild oat (evaluation grade 0-5)” value in the experiment on wild oat (320 g/ha) is listed as 0 (Herbicidal rate of 5% or less (almost no effect)).

For `Cc1nn(C)c(=O)c(-c2c(-c3cccc(C(F)(F)F)c3)sc3c(Cl)cccc23)c1O` [4-072], the “Herbicidal effect by foliage application, O: lambsquarters” value in the experiment on lambsquarters (setting [3]) is 2 (Herbicidal rate of 20% or more and less than 40%). Besides, the “herbicidal effect on rice flat sedge (E)” value in the experiment on rice flat sedge was 4 (Herbicidal rate of 70% or more and less than 90%). In the experiment with blackgrass, the “Herbicidal effect by foliage application, J: blackgrass” value is 0 (Herbicidal rate of 5% or less (almost no effect)). The “Herbicidal effect by foliage application, L: windgrass” value in the experiment with windgrass (setting [3]) is recorded as 0 (Herbicidal rate of 5% or less (almost no effect)). Further, in the experiment on velvetleaf (setting [3]), the “Herbicidal effect by foliage application, M: velvetleaf” value was 3 (Herbicidal rate of 40% or more and less than 70%). Also, the “Herbicidal effect by foliage application, H: barnyard grass” value in the experiment with barnyard grass [1] (setting [3]) was 1 (Herbicidal rate of 5% or more and less than 20%). In addition, in the experiment on green foxtail (setting [3]), the “Herbicidal effect by foliage application, G: green foxtail” value is 3 (Herbicidal rate of 40% or more and less than 70%). Further, the “Herbicidal effect by foliage application, F: southern crabgrass” value in the experiment with southern crabgrass (setting [3]) is 4 (Herbicidal rate of 70% or more and less than 90%). For the same molecule, in the experiment on chickweed (setting [3]), the “Herbicidal effect by foliage application, P: chickweed” value is 5 (Herbicidal rate of 90% or more (almost completely withered)). Further, the “herbicidal effect on barnyard grass (H)” value in the experiment on barnyard grass [2] is 3 (Herbicidal rate of 40% or more and less than 70%). For the same molecule, the “herbicidal effect on Chinese sprangletop (D)” value in the experiment with Chinese sprangletop is 3 (Herbicidal rate of 40% or more and less than 70%). The “Herbicidal effect by foliage application, K: Italian ryegrass” value in the experiment on Italian ryegrass (setting [3]) is 1 (Herbicidal rate of 5% or more and less than 20%). Also, the “Herbicidal effect by foliage application, N: redroot pigweed” value in the experiment with redroot pigweed (setting [3]) is 5 (Herbicidal rate of 90% or more (almost completely withered)). In the experiment on wild oat (setting [3]), the “Herbicidal effect by foliage application, I: wild oat” value was 0 (Herbicidal rate of 5% or less (almost no effect)).

(Values after patent US20230085307A1, “PYRIDAZINONE COMPOUND AND HERBICIDE” (NISSAN CHEMICAL CORPORATION, priority 2019, published 2023).)
